Patent US20250257060A1, “OXADIAZOLE COMPOUND, PHARMACEUTICAL COMPOSITION COMPRISING SAME, AND USE THEREOF” (SUZHOU GENHOUSE BIO CO., LTD., priority 2022, published 2025)
pEC50, pIC50: −log10 of the molar value. Like-named read-outs stand apart in the source and are kept apart here.

Legend:
[1] = target: HDAC6 (Homo sapiens (Human), UniProt Q9UBN7); assay: HDAC6 enzymatic activity assay; assay type: biochemical
Experimental: The inhibitory activity of the compounds of the present application against HDAC6 was evaluated by an enzymatic activity assay. HDAC6 (Abcam), test compounds, and a 20 µM substrate solution (Ac-GAK(Ac)-AMC) were each added to a 384-well plate, and the plate was incubated at 37° C. for 30 min. […] and […] were added, and the plate was incubated at room temperature for 15 min. […] IC50 was obtained by fitting using GraphPadPrism 7.0 software.

[2] = tested on: acetylation level of α-tubulin in HCT116 cells; assay: Assay on acetylation level of α-tubulin, HCT116 cells; assay type: cell-based; settings: Homo sapiens, HCT-116, 6 h
Experimental: A375/HCT116/HCC827 cells at a logarithmic growth phase were taken, digested with a […] (trypsin), centrifuged, counted, and plated in a 96-well plate at an appropriate cell density (30,000 cells/well) at 100 µL/well, and an appropriate amount of PBS was added around the plate for water sealing. The next day, the cells were treated with the compounds at different concentrations (starting at 100 μM, 5-fold dilution, 9 concentration gradients). After 6 h, the medium was pipetted out and the cells were washed twice with 100 μL of PBST. The cells were then immobilized in 4% paraformaldehyde, and the plate was incubated at room temperature for 20 min. The stationary liquid was discarded and the cells were washed with PBST. 150 μL of special blocking buffer (containing 1% Triton-100) was added to each well for blocking at room temperature for 2 h, and the plate was washed with PBS to remove excess blocking buffer. α-tubulin (DM1A) mouse mAb and acetyl-α-tubulin (Lys40) (D20G3) XP rabbit mAb were diluted at a 1:2000 ratio with a blocking buffer containing 0.033% Triton-100. The dilutions were added to the 96-well plate and the plate was incubated overnight at 4° C. Meanwhile, a blank control group was set. The next day, the plate was washed twice with PBST. Secondary anti-mouse IgG (H+L) (DyLight™ 680 conjugate) and anti-rabbit IgG (H+L) (DyLight™ 800 conjugate) were diluted at a 1:2000 ratio with a blocking buffer containing 0.033% Triton-100. The dilutions were added to a 96-well plate and the plate was incubated at room temperature for 2 h. The plate was washed twice with PBST and once with PBS. Fluorescence signals at 700 nm and 800 nm were detected with a Li-COR Odyssey two-color near-infrared laser imager.

[3] = Pharmacokinetic test in mice (IV and PO); assay type: in vivo, BALB/c mice; settings: for Cmax / AUC(0-inf) / AUC(0-t) / MRT inf / Vd / Tmax: BALB/c, mouse, plasma; for MRT inf: read-out: MRT(0-∞); for Vd: read-out: Vz
Experimental: In this example, the pharmacokinetic behavior of the compounds after intravenous injection (IV) and intragastric (PO) administration in BALB/c mice was tested.
On the day of administration, mice were weighed for actual body weight and the administration volume was calculated. Each compound was tested in two groups with 3 mice in each group, one group administered by single intravenous injection and the other group of mice by single intragastric administration. Whole blood samples were collected via the orbit at prescribed time points (0.25 h, 0.5 h, 1 h, 2 h, 4 h, 8 h, and 24 h after administration). After blood sample collection, the samples were immediately transferred to labeled commercial sample tubes containing K2-EDTA (0.85-1.15 mg), followed by centrifugation (3200×g, 4° C., 10 min) and plasma collection. The plasma was transferred to a pre-cooled centrifuge tube, frozen in dry ice, and stored in an ultra-low temperature freezer at −60° C. or lower until the LC-MS/MS analysis.
Plasma concentrations were determined by a LC-MS/MS method. Plasma drug concentration data for compounds 1 and 2 were processed in a non-compartmental model using WinNonlin Version 6.3 (Pharsight, Mountain View, CA) pharmacokinetic software. The relevant pharmacokinetic parameters were calculated by a linear logarithmic trapezoid method.

[4] = Brain-to-blood drug concentration ratio of mice; assay type: in vivo; settings: mouse, 5 mg/kg PO
Experimental: On the day of administration, mice were weighed for actual body weight and the administration volume was calculated. In each group of 9 mice, the compound was administered by single intravenous (IV) injection or intragastric (PO) administration. Whole blood samples were collected via the orbit at prescribed time points. After blood sample collection, the samples were immediately transferred to labeled commercial sample tubes containing K2-EDTA (0.85-1.15 mg), followed by centrifugation (3200×g, 4° C., 10 min) and plasma collection. The plasma was transferred to a pre-cooled centrifuge tube, frozen in dry ice, and stored in an ultra-low temperature freezer at −60° C. or lower until the LC-MS/MS analysis. 20 μL of a plasma sample or brain tissue homogenate was taken and 80 μL of an internal standard solution (50 ng/mL solution of propafenone in acetonitrile) was added. The plate was sealed with a film sealer at 165° C., shaken on a micro oscillator (maximum vibration speed) for 10 min, and centrifuged at 4000 rpm for 20 min using a low-speed benchtop centrifuge, 10 μL of supernatant was transferred and 90 μL of acetonitrile was added. The mixture was vortexed and mixed well, and then the plate was sealed with the film sealer at 165° C. After the mixture was vortexed and mixed well, 1 μL of supernatant was taken for LC-MS/MS analysis. Plasma drug concentration data for the compounds were processed in a non-compartmental model using WinNonlin Version 6.3 (Pharsight, Mountain View, CA) pharmacokinetic software. The relevant pharmacokinetic parameters were calculated by a linear logarithmic trapezoid method.
Data processing: brain-to-blood drug concentration ratio of mice at the same time point=drug concentration in brain tissue/drug concentration in plasma

[5] = brain, read-out: Brain drug concentration
[6] = plasma, read-out: Blood drug concentration

Chain of HDAC6 (Q9UBN7 whole entry): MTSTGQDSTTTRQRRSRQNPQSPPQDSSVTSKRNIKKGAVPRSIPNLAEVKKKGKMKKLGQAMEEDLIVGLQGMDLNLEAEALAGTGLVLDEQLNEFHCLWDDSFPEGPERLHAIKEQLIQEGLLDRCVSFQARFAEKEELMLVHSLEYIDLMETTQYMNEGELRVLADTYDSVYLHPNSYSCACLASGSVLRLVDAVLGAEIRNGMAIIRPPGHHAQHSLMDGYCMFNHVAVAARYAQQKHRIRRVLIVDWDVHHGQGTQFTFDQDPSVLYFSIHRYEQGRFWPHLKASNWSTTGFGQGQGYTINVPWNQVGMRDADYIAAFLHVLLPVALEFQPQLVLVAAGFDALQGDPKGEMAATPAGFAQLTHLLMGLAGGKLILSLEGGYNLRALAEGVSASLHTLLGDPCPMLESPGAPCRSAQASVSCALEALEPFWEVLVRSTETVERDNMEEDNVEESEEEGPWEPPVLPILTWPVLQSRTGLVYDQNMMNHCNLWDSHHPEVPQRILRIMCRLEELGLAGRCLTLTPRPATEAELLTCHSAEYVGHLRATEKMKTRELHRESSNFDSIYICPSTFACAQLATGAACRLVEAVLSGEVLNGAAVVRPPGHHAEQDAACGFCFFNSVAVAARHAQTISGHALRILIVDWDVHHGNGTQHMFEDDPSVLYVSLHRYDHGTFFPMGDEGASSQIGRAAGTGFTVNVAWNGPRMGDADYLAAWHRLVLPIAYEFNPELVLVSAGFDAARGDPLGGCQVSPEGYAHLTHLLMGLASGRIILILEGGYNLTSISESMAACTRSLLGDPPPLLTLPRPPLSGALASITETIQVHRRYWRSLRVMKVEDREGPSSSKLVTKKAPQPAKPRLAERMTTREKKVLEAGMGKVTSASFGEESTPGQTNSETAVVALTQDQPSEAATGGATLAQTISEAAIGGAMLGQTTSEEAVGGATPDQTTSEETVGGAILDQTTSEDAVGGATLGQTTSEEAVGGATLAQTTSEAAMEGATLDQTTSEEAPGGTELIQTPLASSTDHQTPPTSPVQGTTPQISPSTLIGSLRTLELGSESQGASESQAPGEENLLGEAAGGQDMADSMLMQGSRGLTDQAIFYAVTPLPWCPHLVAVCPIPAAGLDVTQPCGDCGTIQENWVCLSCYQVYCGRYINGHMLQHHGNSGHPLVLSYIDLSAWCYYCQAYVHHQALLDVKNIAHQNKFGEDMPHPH

Row | SMILES | pIC50 [1] | pEC50 [2] | Cmax ([3]; po, 5 mg/kg, read-out: C0/Cmax) [µM] | AUC(0-inf) ([3]; mice, IV 1 mg/kg) [µM·h] | AUC(0-t) ([3]; mice, IV 1 mg/kg) [µM·h] | Cmax ([3]; mice, IV 1 mg/kg (C0)) [µM] | MRT inf ([3]; mice, IV 1 mg/kg) [h] | Vd ([3]; mice, IV 1 mg/kg) [L/kg] | AUC(0-inf) ([3]; mice, PO 5 mg/kg) [µM·h] | AUC(0-t) ([3]; mice, PO 5 mg/kg) [µM·h] | Tmax ([3]; mice, PO 5 mg/kg) [h] | MRT inf ([3]; mice, PO 5 mg/kg) [h] | CLz ([3]; mice, IV 1 mg/kg) [mL/min/kg] | t½z ([3]; mice, IV 1 mg/kg) [h] | F ([3]; mice, PO 5 mg/kg) [%] | t½z ([3]; mice, PO 5 mg/kg) [h] | concentration at 2 h [4, 5] [ng/mL] | Kp at 2 h ([4]; brain/plasma) | concentration at 2 h [4, 6] [ng/mL] | concentration at 1 h [4, 5] [ng/mL] | other results
1 | O=S1(=O)c2cc(-c3nnc(C(F)F)o3)ccc2CN1[C@@H](c1ccccn1)[C@H](O)c1ccc(F)cn1 (single isomer, unassigned) [Compound 84j-A] | 7.37 | 6.26 | – | – | – | – | – | – | – | – | – | – | – | – | – | – | – | – | – | – | –
2 | O=S1(=O)c2cc(-c3nnc(C(F)F)o3)ccc2CN1[C@@H](c1ccc(F)cn1)[C@H](O)c1ccc(F)cn1 (single isomer, unassigned) [Compound 88j-A-B] | 6.80 | 6.21 | – | – | – | – | – | – | – | – | – | – | – | – | – | – | – | – | – | – | –
3 | O=C(N[C@@H]1CCOC[C@H]1N1Cc2ccc(-c3nnc(C(F)F)o3)cc2S1(=O)=O)C(F)F [Compound 14] | – | 6.91 | 7.27 | 4.27 | 4.22 | 3.15 | 1.5 | 0.928 | 15.2 | 14.8 | 0.5 | 1.88 | 8.4 | 1.277 | 71.27 | 1.48 | 42.8 | 0.03 | 1380 | 85.6 | Kp at 1 h ([4]; brain/plasma): 0.03; concentration at 1 h [4, 6]: 2450 ng/mL
4 | O=C(N[C@@H]1CCCC[C@H]1N1Cc2ccc(-c3nnc(C(F)F)o3)cc2S1(=O)=O)N1CCOCC1 [Compound 113] | – | 6.62 | 5.13 | 1.71 | 1.7 | 3.47 | 0.542 | 1.03 | 8.71 | 8.64 | 0.25 | 1.47 | 19.58 | 0.605 | 101.8 | 1.149 | 16.2 | 0.02 | 930 | 44.8 | Kp at 1 h ([4]; brain/plasma): 0.03; concentration at 1 h [4, 6]: 1400 ng/mL

Second part, led by results:

Row | pIC50 [1] | pEC50 [2] | Cmax ([3]; po, 5 mg/kg, read-out: C0/Cmax) [µM] | AUC(0-inf) ([3]; mice, IV 1 mg/kg) [µM·h] | AUC(0-t) ([3]; mice, IV 1 mg/kg) [µM·h] | Cmax ([3]; mice, IV 1 mg/kg (C0)) [µM] | MRT inf ([3]; mice, IV 1 mg/kg) [h] | Vd ([3]; mice, IV 1 mg/kg) [L/kg] | AUC(0-inf) ([3]; mice, PO 5 mg/kg) [µM·h] | AUC(0-t) ([3]; mice, PO 5 mg/kg) [µM·h] | Tmax ([3]; mice, PO 5 mg/kg) [h] | MRT inf ([3]; mice, PO 5 mg/kg) [h] | CLz ([3]; mice, IV 1 mg/kg) [mL/min/kg] | t½z ([3]; mice, IV 1 mg/kg) [h] | F ([3]; mice, PO 5 mg/kg) [%] | t½z ([3]; mice, PO 5 mg/kg) [h] | concentration at 2 h [4, 5] [ng/mL] | Kp at 2 h ([4]; brain/plasma) | concentration at 2 h [4, 6] [ng/mL] | concentration at 1 h [4, 5] [ng/mL] | SMILES | other results
5 | 7.25 | 6.61 | – | – | – | – | – | – | – | – | – | – | – | – | – | – | – | – | – | – | CC(F)(F)C(=O)N[C@H]1[C@H](N2Cc3ccc(-c4nnc(C(F)F)o4)cc3S2(=O)=O)CCCC1(F)F [Compound 7] | –
6 | 7.37 | 6.58 | 4.77 | 3.68 | 3.48 | 1.72 | 2.5 | 1.5 | 21.5 | 19.9 | 0.5 | 3.3 | 8.3 | 1.9 | 117.1 | 2.1 | 338 | 0.17 | 2020 | – | CC(F)(F)C(=O)N[C@@H]1CCCC(F)(F)[C@H]1N1Cc2ccc(-c3nnc(C(F)F)o3)cc2S1(=O)=O [Compound 10] | concentration at 8 h ([4]; brain, 8 h, read-out: Brain drug concentration): 80 ng/mL; Kp at 8 h ([4]; brain/plasma, 8 h): 0.29; concentration at 8 h ([4]; plasma, 8 h, read-out: Blood drug concentration): 277 ng/mL
7 | – | 6.88 | 7.13 | 4.53 | 4.42 | 3.05 | 1.85 | 1.05 | 22 | 21.4 | 0.5 | 2.63 | 8 | 1.52 | 97.0 | 1.52 | 174 | 0.09 | 1780 | 218 | O=C(N[C@@H]1COCC[C@H]1N1Cc2ccc(-c3nnc(C(F)F)o3)cc2S1(=O)=O)C(F)F [Compound 13] | Kp at 1 h ([4]; brain/plasma): 0.07; concentration at 1 h [4, 6]: 2950 ng/mL
8 | 7.01 | 6.45 | – | – | – | – | – | – | – | – | – | – | – | – | – | – | – | – | – | – | O=C(N[C@@H]1CCCC[C@H]1N1Cc2ccc(-c3nnc(C(F)F)o3)cc2S1(=O)=O)C1CC1 [Compound 114] | –
